# Data as given in BindingDB's records for doi:10.7270/Q2D798VP (Broad Institute, 2009).
# Where a name gives a salt, the structure may show the parent alone.
# Target: T1, Zinc finger protein mex-5 (Caenorhabditis elegans, UniProt Q9XUB2)
# T1 sequence (Q9XUB2 whole entry): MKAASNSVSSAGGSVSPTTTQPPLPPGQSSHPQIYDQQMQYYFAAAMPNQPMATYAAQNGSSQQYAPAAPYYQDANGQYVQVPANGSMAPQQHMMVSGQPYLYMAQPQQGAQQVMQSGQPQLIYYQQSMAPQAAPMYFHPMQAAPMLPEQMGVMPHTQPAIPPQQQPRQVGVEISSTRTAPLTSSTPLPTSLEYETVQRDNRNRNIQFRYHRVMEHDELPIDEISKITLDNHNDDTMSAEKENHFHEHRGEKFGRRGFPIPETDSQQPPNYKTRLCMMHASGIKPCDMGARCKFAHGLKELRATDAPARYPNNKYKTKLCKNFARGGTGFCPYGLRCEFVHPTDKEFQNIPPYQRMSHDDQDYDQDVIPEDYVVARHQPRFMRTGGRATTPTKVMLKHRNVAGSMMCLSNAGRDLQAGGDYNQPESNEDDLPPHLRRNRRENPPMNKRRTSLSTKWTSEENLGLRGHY
# Experiment: MEX-5/TCR-2 RNA interaction inhibitors, dose response, biochemical, C. elegans, fluorescence polarization (AID 1960)
row,Compound,EC50
1,CN(C)c1ccc(C=NN(CCC(=O)NC(C)(C)C)C2=NS(=O)(=O)c3ccccc32)cc1 [SMR000556213],36.3 µM
2,Oc1ccc2ccccc2c1CN=Nc1nnc(-c2ncc[nH]2)c2ccccc12 [SMR000151639],2.45 µM
3,CCOc1ccc(N2C(=O)C(=Cc3ccco3)C(=O)NC2=S)cc1 [MLS001205052],178 µM
4,COc1cc(OC)c(C2C3=C(CC(C)(C)CC3=O)OC(=N)C2C#N)cc1OC (stereo not given) [SMR000054706],> 300 µM
5,"O=[N+]([O-])c1cc([CH+][N-]n2c(O)csc2=S)ccc1Cl [3-[(4-chloranyl-3-nitro-phenyl)methylideneamino]-2-sulfanylidene-1,3-thiazolidin-4-one]",15.7 µM
6,CC1=C(C#N)C(=O)N(C)C(=O)C1=CNNc1ccc(F)cc1 [MLS000702698],> 300 µM
7,"CN1CCC2=C(C#N)C(=N)C(C#N)(C#N)C(c3cccc(Cl)c3Cl)C2C1 (stereo not given) [6-azanyl-8-[2,3-bis(chloranyl)phenyl]-2-methyl-1,3,8,8a-tetrahydroisoquinoline-5,7,7-tricarbonitrile]",13.5 µM
8,"CSc1nnc(N2C(=O)C(=O)C(C(=O)c3ccco3)C2c2cccc(Cl)c2)s1 (stereo not given) [2-(3-chlorophenyl)-3-(furan-2-carbonyl)-4-hydroxy-1-(5-methylsulfanyl-1,3,4-thiadiazol-2-yl)-2H-pyrrol-5-one]",14.3 µM
9,"CN(C)c1ccc(O)c2c1CC1CC3C(N(C)C)C(=O)C(C(N)=O)C(=O)[C@@]3(O)C(=O)C1C2=O (stereo partly drawn) [(2E,12aS)-2-[azanyl(oxidanyl)methylidene]-4,7-bis(dimethylamino)-10,11,12a-tris(oxidanyl)-4a,5,5a,6-tetrahydro-4H-tetracene-1,3,12-trione;hydrochloride]",37 µM
10,"COc1ccc(N=C(C(=C(Cl)C(Cl)Cl)[N+](=O)[O-])n2nnc3ccccc32)cc1 [N-[(1E)-1-(1-benzotriazolyl)-3,4,4-trichloro-2-nitrobuta-1,3-dienyl]-4-methoxyaniline]",49.1 µM
11,O=C1C(=O)N(c2ncccn2)C(c2cccs2)C1C(=O)c1ccco1 (stereo not given) [3-(furan-2-carbonyl)-4-hydroxy-1-pyrimidin-2-yl-2-thiophen-2-yl-2H-pyrrol-5-one],31.5 µM
12,"Cc1c(NC=C2C(=O)NC(=O)N(Cc3ccco3)C2=O)c(=O)n(-c2ccccc2)n1C [(5E)-1-(2-furfuryl)-5-[[(3-keto-1,5-dimethyl-2-phenyl-3-pyrazolin-4-yl)amino]methylene]barbituric acid]",> 300 µM
13,CC(N=Nc1ccc(Cl)c(C(=O)O)c1)c1ccc[nH]1 (stereo not given) [2-chloro-5-[2-[(1Z)-1-pyrrol-2-ylideneethyl]hydrazinyl]benzoic acid],150 µM
14,COc1ccc(C2CC(c3ccc(Br)s3)=Nc3ncnn32)cc1OC (stereo not given) [SMR000032927],6.36 µM
15,O=C(N/N=C/C1C=C(Cl)C=C([N+](=O)[O-])C1=O)c1ccccc1NS(=O)(=O)c1cccs1 (stereo not given) [SMR000364876],1.56 µM
16,"N#CCC(=N)C(C#N)C#N [1,1,3-tricyano-2-amino-1-propene]",169 µM
17,"COc1ccc(C2C3=C(CCCC3=O)OC(=N)C2C#N)cc1OC (stereo not given) [2-amino-4-(3,4-dimethoxyphenyl)-5-keto-4,6,7,8-tetrahydrochromene-3-carbonitrile]",> 300 µM
18,Cc1nnc(=O)[nH]c1N=NCC1C=CC(=O)C([N+](=O)[O-])=C1 (stereo not given) [MLS000585487],65.5 µM
19,"COc1cc(C2NC(=S)N=C(C)C2C(=O)OC(C)C)ccc1OC(C)C (stereo not given) [4-(3-methoxy-4-propan-2-yloxyphenyl)-6-methyl-2-sulfanylidene-3,4-dihydro-1H-pyrimidine-5-carboxylic acid propan-2-yl ester]",> 300 µM
20,C=CCn1c(=O)c(=Cc2ccsc2)s/c1=C(\C#N)C(=O)NCCN1CCOCC1 [2-[3-allyl-4-keto-5-(3-thenylidene)thiazolidin-2-ylidene]-2-cyano-N-(2-morpholinoethyl)acetamide],21.9 µM
